Laboratory results reported in patent US11261210B2, “Glycosylated antitumor ether lipids as novel cancer stem cell cytotoxic agents” (UNIVERSITY OF MANITOBA, priority 2012, dated 2022).

How the values were obtained:
[1] = system: BT-474 stem cell tumorspheres; experiment: Viability of BT-474 stem cell tumorspheres (MTS assay); type: cell-based, human; details: for Viability (% 0f control) / loss of viability / toxicity against the cancer stem cells: 6 days; for Viability (% 0f control): Table 2; for toxicity against the cancer stem cells: BT-474 spheroids
Description: FIG. 6. Effect of β-O-Gln, α-O-Gln, β-C-Gln and ET-18-OCH3 on the viability of BT-474 stem cell tumorspheres. BT-474 cancer stem cells were grown for 7 days in ultra low adhesion 6 well plates. The tumorspheres formed were harvested, trypsinised and cell numbers were determined. Equal numbers of cells were dispersed into 48-well plates in mammocult medium and incubation was under static conditions. Wells with only medium but no cells were treated in an identical manner to serve as blanks. After spheres were formed, β-O-Gln, α-O-Gln, β-C-Gln or ET-18-OCH3 (0, 10, 20, 30 μM) were added and incubation was for a total of 6 days. At the end of the incubation, the MTS reagent was added to each well and the plates were rotated on a Nutator mixer in a 5% CO2 incubator for 4 h. The absorbance of each well was read at 470 nm. The results are the means±standard deviation of 4 independent determinations.
(§1) Cell viability assay: Cell viability was determined by the Cell Titre 96 Aqueous One solution proliferation assay ((MTS assay; Promega) according to the instructions of the manufacturer.
The viability of the material at the end of the incubation was determined using the MTS assay. […] In cells incubated with 10 μM of β-C-Gln, 90% of the cells were not viable. […] In contrast, in experiments with ET-18-OCH3, 10 or 20 μM ET-18-OCH3 had little effect on the viability of BT-474 spheroids and at a concentration of 30 μM viability was around 45% relative to controls. The results of the integrity studies correlate well with the viability studies.
We also investigated the effect of α-O-Galn, β-O-Galn or α-O-Mann on the viability of BT-474 spheroids. The spheroids were incubated with the compounds for 6 days and the viability was assessed by the MTS assay. […] Viability was down to around 10% at 10 μM concentration of the compound. […] At a concentration of 30 μM a significant proportion (26-32%) of the BT-474 cancer stem cells were still viable. The cytotoxic efficacy of GAELs is dependent on the type of sugar moiety and the anomeric form in some instances.

[2] = system: JIMT1 stem cell tumorspheres; experiment: Viability of JIMT1 stem cell tumorspheres (MTS assay); type: cell-based, human; details: 6 days
Description: FIG. 8. Effect of β-O-Gln, α-O-Gln, β-C-Gln and ET-18-OCH3 on the viability of JIMT1 stem cell tumorspheres. BT-474 cancer stem cells were grown for 7 days in ultra low adhesion 6-well plates. The tumorspheres formed were harvested, trypsinised and cell numbers were determined. Equal numbers of cells were dispersed into 48-well non-treated plates in mammocult medium and incubation was under static conditions. Wells with only medium but no cells were treated in an identical manner to serve as blanks. After spheres were formed, O-Gln, C-Gln or ET-18-OCH3 (0, 10, 20, 30 μM) were added and incubation was for a total of 6 days. At the end of the incubation, the MTS reagent was added to each well and the plates were mixed in a nutator in a 5% CO2 incubator for 4 h. The absorbance of each well was read at 470 nm. The results are the means±standard deviation of 4 independent determinations.
as §1
The viability of cells in spheroids incubated with 20 or 30 μM ET-18-OCH3 was between 30-40% of controls.

cancer cell lines = details: Xu et al., ChemMedChem in press; cited from earlier work
cancer stem cells = experiment: Tumorsphere formation by freshly sorted cancer stem cells; type: cell-based, human; details: added to freshly sorted cancer stem cells, 10 μM and above, 6 days
Excerpt: Breast cancer stem cell enriched cell population was obtained by staining breast cancer cell lines BT-474 and JIMT-1 for aldehyde dehydrogenase 1 (ALDH1) using the assay kit from Stem Cell Technologies (Vancouver BC, Canada) according to the instructions of the manufacturer with the appropriate controls. BT-474 is a ductal carcinoma cell line (Lasfargues E Y, Coutinho W G, Dion A S (1979) A human breast tumor cell line (BT-474) that supports mouse mammary tumor virus replication. In Vitro 15, 723-729) while JIMT-1 is a carcinoma cell line that is resistant to herceptin (Tanner M, Kapanen A J, Junttila T, Raheem O, Grenman S, Elo J, Elenius K, Isola J (2004). Characterization of a novel cell line established from a patient with herceptin-resistant breast cancer. Mol Cancer Ther 3, 1585-1592). Following the staining, the cells stained for ALDH1 were sorted from the bulk population by flow cytometry on a 4 laser MoFloXPP high speed/pressure cell sorter. The cells were pelleted by centrifugation, resuspended in supplemented Mammocult medium (Stem Cell Technologies) and dispersed into ultra-low adhesive 6-well plates or 35 mm dishes for 7 days to allow the formation of spheroids (mammospheres). After 7 days, the spheres were separated from single cells (dead non-stem cells) by sieving the contents of the well through a […] nylon cell strainer (BD Falcon). The spheres retained in the sieve are washed with Hanks buffer and subsequently trypsinised to obtain a single cell suspension of cancer stem cells. The cell numbers were determined with a Coulter ZM counter and the cells were seeded into the appropriate low adhesion tissue culture ware for various studies.
AEL solutions in ethanol were diluted into supplemented mammocult medium generally at twice the desired final concentration. A volume equal to that in the wells was added to dilute the drug to the desired concentration in each well. Subsequently any further addition of drug to the wells, utilized AEL solution prepared at the desired concentration. […]

[3] = Generation of large acidic vacuoles; type: cell-based
Excerpt: Autophagy 5, 835-84663). Furthermore an active endocytosis pathway was essential for GAEL activity (Samadder P, Byun H-S, Bittman R, Arthur G (2011) The endocytosis pathway is required for the cytotoxic effects of glycosylated antitumor ether lipids, Anticancer Res 31, 3809-3818). The generation of the large acidic vacuoles is a hallmark of this non-apoptosis death pathway induced by GAELs.

[4] = system: JIMT-1 stem cell spheroids; experiment: Morphology of JIMT-1 stem cell spheroids; type: cell-based, human; details: 6 days, FIG. 7B
Description: FIG. 7. A. Effect of β-O-Gln, β-C-Gln or ET-18-OCH3 on morphology of JIMT-1 stem cell spheroids. B. Effect of β-O-Gln, α-O-Gln or ET-18-OCH3 on morphology of JIMT-1 stem cell spheroids. JIMT-1 cancer stem cells were grown for 7 days in ultra low adhesion 6 well plates. The tumorspheres formed were harvested, trypsinised and cell numbers were determined. Equal numbers of cells were dispersed into 48-well non-treated plates in mammocult medium and incubated in a CO2 incubator under static conditions. After spheres were formed, O-Gln, C-Gln or ET-18-OCH3 were added (0, 10, 20 and 30 μM) and incubation was for a total of 6 days with media supplementation after 3 days. Images for FIG. 7A were taken at day 0 and after 72 h following addition of the compounds. Images for FIG. 7B were taken after 6 days incubation with the compounds.
The above studies were repeated with JIMT-1 spheroids.

BT474 cancer stem cells = experiment: Trypan blue dye exclusion viability of BT474 cancer stem cells; type: cell-based, human; details: BT474 cancer stem cells incubated with compound
Description: Trypan blue dye exclusion assay using the TC10 automated cell counter (BioRad) was also used for some studies.
We investigated the effects of the GAELs and the ALPET-18-OCH3 on the ability of the cancer stem cells to form tumorspheres. […] This was a concentration dependent event and at concentrations greater than 10 μM spheroid formation was completely disrupted.

BT-474 cancer stem cells = experiment: BT-474 cancer stem cell spheroid formation; type: cell-based, human; details: BT474 cancer stem cells, FIG. 1B
Description: FIG. 1. A. Effect of β-C-Gln (β-AC1) on BT-474 cancer stem cell spheroid formation. BT-474 cancer stem cells were obtained by staining BT474 cells for ALDH1 and sorting the stained from unstained cells by flow cytometry. The ALDH1 stained cells were grown in ultra-low adhesion 6-well plates in mammocult medium for 7 days. The spheroids were isolated and trypsinised to generate single cells. The cells were then seeded for 2 days in ultra-low adhesion 6-well plates, and subsequently incubated in the absence or presence of C-Gln for up to 12 days. The media was replenished after 6 days. B. Effect of β-O-Gln (β-AO1), α-O-Gln (α-AO1), or ET-18-OCH3 on BT-474 cancer stem cell spheroid formation.
Breast cancer stem cell enriched cell population was obtained by staining breast cancer cell lines BT-474 and JIMT-1 for aldehyde dehydrogenase 1 (ALDH1) using the assay kit from Stem Cell Technologies (Vancouver BC, Canada) according to the instructions of the manufacturer with the appropriate controls. […] The cell numbers were determined with a Coulter ZM counter and the cells were seeded into the appropriate low adhesion tissue culture ware for various studies. […]

CCCCCCCCCCCCCCCCCCOCC(COP(=O)([O-])OCC[N+](C)(C)C)OC (stereo not shown) [ET-18-OCH3, 1-O-octadecyl-2-O-methyl-glycerophosphocholine, reference compound]
viability at 30 µM ([1]; Homo sapiens, BT-474, 144 h, read-out: viability relative to controls): ~45% | viability, % of controls ([2]; 20 or 30 μM): 30-40 % of controls | cytotoxicity at 10 µM ([2]; Homo sapiens, JIMT-1, 144 h, 10 μM, read-out: loss of viability): 40%

CCCCCCCCCCCCCCCCOC[C@H](CS[C@H]1O[C@H](CO)[C@@H](O)[C@H](O)[C@H]1N)OC [α-AS2, 1-O-Hexadecyl-2-O-methyl-3-S-(2′-amino-2′-deoxy-α-D-glucopyranosyl)-sn-glycerol]
cytotoxicity compared to β-O-Gln (β-AO1) (cancer cell lines): not as active as β-O-Gln

CCCCCCCCCCCCCCCCOC[C@H](COC1O[C@H](CO)[C@H](O)[C@H](O)[C@H]1N)OC (stereo partly drawn) [α-O-Galn, 1-O-Hexadecyl-2-O-methyl-3-O-(2′-amino-2′-deoxy-D-galactopyranosyl)-sn-glycerol]
Viability (% 0f control) ([1]; 10 μM): around 10 % 0f control | Viability (% 0f control) ([1]; 10 μM, listed as α-Galn): 9.64 % 0f control | Viability (% 0f control) ([1]; 20 μM, listed as α-Galn): 0 % 0f control | Viability (% 0f control) ([1]; 30 μM, listed as α-Galn): 0 % 0f control | loss of viability ([1]; 20 or 30 μM): Complete loss of viability | toxicity against the cancer stem cells [1]: quite toxic | spheroid formation (cancer stem cells): unable to form spheroids | generation of large acidic vacuoles [3]: generation of these vacuoles

CCCCCCCCCCCCCCCCOC[C@H](COC1O[C@H](CO)[C@@H](O)[C@H](O)[C@H]1N)OC (stereo partly drawn) [α-O-Gln, 1-O-Hexadecyl-2-O-methyl-3-O-(2′-amino-2′-deoxy-D-glucopyranosyl)-sn-glycerol]
spheroid integrity [4]: complete disintegration of the spheroids | loss of viability ([1]; 10 μM): about 60% | loss of viability ([1]; 20 or 30 μM): total loss of viability | spheroid formation (cancer stem cells): unable to form spheroids | cytotoxicity compared to β-O-Gln (β-AO1) (cancer cell lines): superior activity | loss of viability ([2]; 10 μM): 90% | loss of viability ([2]; 20 or 30 μM): Complete loss of viability | viability (trypan dye exclusion) (BT474 cancer stem cells): not viable | spheroid formation (BT-474 cancer stem cells): unable to form spheroids | generation of large acidic vacuoles [3]: generation of these vacuoles

CCCCCCCCCCCCCCCCOCC(CO[C@H]1O[C@H](CO)[C@@H](O)[C@H](O)[C@@H]1N)OC (stereo partly drawn) [α-O-Mann]
Viability (% 0f control) ([1]; 10 μM): 134.3 % 0f control | Viability (% 0f control) ([1]; 20 μM): 58.84 % 0f control | Viability (% 0f control) ([1]; 30 μM, listed as α-Mann): 25.9 % 0f control | toxicity against the cancer stem cells [1]: not as active as α-O-Galn

CCCCCCCCCCCCCCCCOC[C@H](CS[C@@H]1O[C@H](CO)[C@@H](O)[C@H](O)[C@H]1N)OC [β-AS1, 1-O-Hexadecyl-2-O-methyl-3-S-(2′-amino-2′-deoxy-β-D-glucopyranosyl)-sn-glycerol]
cytotoxicity compared to β-O-Gln (β-AO1) (cancer cell lines): not as active as β-O-Gln

CCCCCCCCCCCCCCCCOC[C@H](COC1O[C@H](CO)[C@H](O)[C@H](O)[C@H]1N)OC (stereo partly drawn) [β-O-Galn, 1-O-Hexadecyl-2-O-methyl-3-O-(2′-amino-2′-deoxy-D-galactopyranosyl)-sn-glycerol]
Viability (% 0f control) ([1]; 10 μM, listed as β-Galn): 153.7 % 0f control | Viability (% 0f control) ([1]; 20 μM, listed as β-Galn): 48.0 % 0f control | Viability (% 0f control) ([1]; 30 μM, listed as β-Galn): 32.16 % 0f control | toxicity against the cancer stem cells [1]: not as active as α-O-Galn
